In data set [1] the test system is A. baumannii (ATCC 19606). The data set is described as follows: Micro dilution broth checkerboard. Type of data set: cell-based, Acinetobacter baumannii. The note with it: wells at growth–no growth interface.
Data set [2] relates to A. baumannii (ATCC19606). The experiment in a line: Mouse septicemia model, survival. Type of data set: in vivo, C57BL/6 mice.
The conditions of data set [3]: in vivo; cited from earlier work.
In data set [4] the test system is MDR-A. baumannii ATCC BAA-1800. The data set is described as follows: MIC/MBC broth dilution, MDR A. baumannii. It counts as cell-based, Acinetobacter baumannii. The note with it: for MBC / MIC: MDR-A. baumannii ATCC BAA-1800, broth dilution. (In general: Dilution methods test growth across graded concentrations, often in twofold steps.)
Data set [5] can be described thus: Caco-2 permeability. Type of data set: in vitro ADME. The note with it: human.
Data set [6] has as its system A. baumannii (ATCC19606). The data set is described as follows: Spontaneous mutation frequency on agar. The note with it: 4xMIC concentration. It counts as cell-based, Acinetobacter baumannii.
The test system of data set [7] is A. baumannii ATCC 19606. The data set is described as follows: MIC/MBC broth dilution, drug sensitive A. baumannii. It counts as cell-based, Acinetobacter baumannii. The note with it: for MBC: kills 99.9% of bacteria.
For data set [8], the system named is Vero cells. The experiment in a line: Cytotoxicity. Type of data set: cell-based, monkey. The note with it: MTT assay. For orientation: Formazan colour is commonly taken as a measure of viable cells.
The mark [9] stands for this setting: combination of valnemulin and doxycycline.

“And” between values parts separate entries of the source, which are not always exact repeats. Equal values may be shown once. Bounds are passed on as bounds.

By Papp is commonly meant the rate of passage across a membrane or cell layer, normalised by area and donor concentration. One may read the MBC as the smallest concentration meeting the test's criterion for killing. Read a high MBC as less potent killing. The term MIC denotes the smallest concentration in the dilution series that meets the test's criterion for growth inhibition. A higher MIC goes with a less susceptible organism.

In the case of `C[C@H]1c2cccc(O)c2C(=O)C2=C(O)[C@]3(O)C(=O)C(C(N)=O)=C(O)[C@@H](N(C)C)[C@@H]3[C@@H](O)[C@@H]21.O` [Doxycycline, doxycycline], the “MIC CA and CB (concentrations of A and B in combination)” value in data set [1] (combination of 1 and doxycycline) was 0.025 µg/mL and 0.05 µg/mL; in data set [1] (setting [9]) it was 0.025 µg/mL and 0.05 µg/mL.
As to `NC[C@H]1O[C@H](O[C@H]2[C@H](O)[C@@H](O[C@H]3O[C@H](CO)[C@@H](O)[C@H](N)[C@H]3O)[C@H](N)C[C@@H]2N)[C@H](N)C[C@@H]1O` [Tobramycin, tobramycin], in data set [2] (6.0 mg/kg dose IP), the “survival of mice” value is reported as “survived the mice”.
`C=C[C@]1(C)C[C@@H](OC(=O)CSC(C)(C)CNC(=O)[C@H](N)C(C)C)[C@]2(C)[C@H](C)CC[C@]3(CCC(=O)[C@H]32)[C@@H](C)[C@@H]1O` [Valnemulin, valnemulin]: in data set [3], the half-lives in plasma was 1.3 to 2.9 h. Also, the “MIC CA and CB (concentrations of A and B in combination)” value in data set [1] (setting [9]) is 0.78 µg/mL and 1.56 µg/mL.
`C=C[C@]1(C)C[C@@H](OC(=O)CSC(C)(C)CNC(=O)[C@H](N)C(C)C)[C@]2(C)[C@H](C)CC[C@]3(CC[C@@H](O)[C@H]32)[C@@H](C)[C@@H]1O` [compound 1, (3R,3aR,4R,5R,7S,8S,9R,9aS,12R)-3,8-dihydroxy-4,7,9,12-tetramethyl-7-vinyldecahydro-4,9a-propanocyclopenta[8]annulen-5-yl 2-((1-((R)-2-amino-3-methylbutanamido)-2-methylpropan-2-yl)thio)acetate]: the “concentrations at which the MDR strain was killed” value in data set [4] (A. baumannii ATCC BAA-1800) fell in the range of 6.25 to 12.5 µg/mL. Further, the apparent permeability coefficient (Papp) in data set [5] is above 1 ×10⁻⁶ cm/s. Also, the “spontaneous resistance mutation frequency” value in data set [6] was 1×10^−8. Also, the “effectiveness in mouse septicemia model” value in data set [2] (IP single dose, 2 to 60 mg/kg) is recorded as “showed effectiveness in the same in vivo studies, but required higher dosage than that with 1-Dox35/1”.
In data set [4], “(3R,3aR,4R,5R,7S,8S,9R,9aS,12R)-3,8-dihydroxy-4,7,9,12-tetramethyl-7-vinyldecahydro-4,9a-propanocyclopenta[8]annulen-5-yl 2-((1-((R)-2-((S)-2,5-diaminopentanamido)-3-methylbutanamido)-2-methylpropan-2-yl)thio)acetate [compound 2]” had an MBC above 12.5 µg/mL and an MIC of 3.13 µg/mL. Further, in data set [7], the MIC was 3.13 µg/mL and the MBC was above 12.5 µg/mL.
As for colistin, the “Cytotoxicity IC50” value in data set [8] was above 200 µg/mL. Moreover, in data set [4], the MBC was found to be 25.0 µg/mL and the minimal inhibitory concentration (MIC) is above 12.5 µg/mL. Also, in data set [7], the MIC turned out to be 3.13 µg/mL and the MBC was 6.25 µg/mL.

The values above are taken from PMC5469366 (Journal of medicinal chemistry, 2017).
